This assay concerns primary human pancreatic cells. The experiment in a line: Attachment and growth of primary pancreatic cells on ECM-coated surfaces (cell counting, MTS metabolic activity assay). Particulars: 10^5 cells/cm^2, grown 8 days; FIG. 4A. Type of assay: cell-based. The protocol:
The attachment of primary human pancreatic cells was evaluated by counting the number of attached cells vs. the number of cells initially seeded on a panel of ECM surfaces comprised of Collagen I (1 μg/cm^2), Fibronectin (3 μg/cm^2), Laminin (2 μg/cm^2), Vitronectin (1 μg/cm^2), Matrigel (1 μg/cm^2), Human ECM (1 μg/cm^2), or Poly-D -Lysine (3 μg/cm^2). In one condition, a mixture of Collagen IV, Laminin, and Fibronectin was utilized. […] Excess ECM solution was then removed and surfaces were rinsed twice in water. Just before seeding cells, the water was aspirated, then cells were seeded onto the ECM surface at a density of 1×10^5 cells/cm^2 in growth medium (PCM) composed of DMEM:HamsF12 mixture (1:1) with 4 mM glutamine, 1×ITS supplement (GIBCO 51500-056), 10% Fetal Calf Serum (Inactivated, Qualified, GIBC 26140-079), and 10 ng/ml Epidermal Growth Factor (EGF) (BD 4001). Cells were seeded onto tissue-culture polystyrene surface as a control. […] The metabolic activity of cells subjected to the various conditions was determined by an MTS assay. Viable cells were measured using the MTS assay (Promega CellTiter 96 Aqueous One Solution Cell Proliferation Assay), a colorimetric method for determining the number of viable cells in proliferation or cytotoxicity. […]
(In general: Tetrazolium assays rely on reduction of a dye to a coloured formazan, in cell work by metabolically active cells.)

For Laminin, the “cell attachment and expansion on coated surface” value is “suitable surface for cell attachment and expansion”.
Turning to Fibronectin, the “cell attachment and expansion on coated surface” value was “suitable surface for cell attachment and expansion”.
